Patent US10238665B2, “Methods for treating fungal infections” (BRIGHAM YOUNG UNIVERSITY, priority 2014, dated 2019)
In brackets after ≈: the same amount, converted by molar mass. Read-outs that look alike come from different tables or passages of the source.

What was measured:
[1] = system: C. galabrata (fluconazole resistant); experiment: MIC determination, broth microdilution (CLSI M27-A2); assay type: cell-based, Candida glabrata; settings: 35° C., 24 hrs, 50% growth inhibition
Procedure: (§1) CSA 8 and CSA 13 were dissolved in dimethyl sulfoxide (DMSO) to create stock solutions. These solutions were applied to fungal isolates to determine the minimum inhibitory concentration (MIC) for each CSA.
(§2) An antifungal agent is serially diluted two-fold in a desired medium to produce ten concentrations of the antifungal under investigation. The range used is chosen to include achievable serum levels of the drug. A standardized inoculum of either yeast cells or conidia is diluted in an equal volume of the desired medium. The yeast or conidia inoculum is incubated in the serially diluted drug wells at 35° C. Two wells are used as controls. The negative control well has only media and serves as a sterility control. The positive control well has the standardized inoculum with no drug, and is used to compare with the amount of growth in the drug wells.
(§3) Testing is reported as an MIC, or minimum inhibitory concentration in μg/ml. This number represents the concentration at which the organism's growth in inhibited 50% from the control well for yeasts, and 80% for dermatophytes and certain filamentous fungi/antifungal combinations. Amphotericin B readings are taken at 100% inhibition.
(§4) Fungal cultures were prepared as follows: • 1. Grow Candida sp. on a potato dextrose agar plate for 24 hrs. at 35° C. Grow Cryptococcus sp. for 48 hrs. • 2. […]

[2] = system: C. parapsilosis; experiment: as above; assay type: cell-based, Candida parapsilosis; settings: 35° C., 24 hrs, 50% growth inhibition
Procedure: as §1, §2, §3, §4

[3] = system: T. mentagrophytes; experiment: MIC determination, broth microdilution (CLSI M38-A); assay type: cell-based, Trichophyton mentagrophytes; settings: 35° C., 80% growth inhibition for dermatophytes
Procedure: as §1, §2, §3, §4

[4] = system: Aspergillus fumigatus; experiment: as above; assay type: cell-based; settings: 35° C.
Procedure: as §1, §2, §3
(§5) Fungal cultures were prepared as follows: • 1. Grow Candida sp. on a potato dextrose agar plate for 24 hrs. at 35° C. Grow Cryptococcus sp. for 48 hrs. • 2. Pick 5 colonies >1 mm in diameter to 5 ml of 0.85% sterile saline in a sterile 15 ml conical tube and vortex. • 3. Count the cells using a hemacytometer • 4. Prepare a working suspension of yeast cells in RPMI-1640 to a final concentration of 2-5×10^3 CFU/ml (CFU=colony forming units or yeast cells) • 5. Prepare at least 2.5 ml of the working yeast suspension per drug per plate.
(§6) Plates were prepared as follows: • 1. Aseptically dispense RPMI-1640 into a 25 ml reservoir. • 2. Using a multichannel pipette with 8 tips, dispense 100 μl of RPMI-1640 into the wells of a 96 well round bottom plate in columns 11 and 12. These will serve as growth controls and sterility controls, respectively. • 3. Remove excess liquid from the reservoir. • 4. Add the lowest concentration of antifungal from the set of final concentrations to the reservoir, and using the same set of tips, dispense 100 μl into the wells of column 10. • 5. Repeat steps 4-5 for each final concentration, working from lowest to highest concentration into columns 9 through 1, until all columns are filled. • 6. Using a new set of pipette tips and a new reservoir, add 100 μl of inoculum to each well except […]. • 7. Run each organism in duplicate (i.e. add isolate one to rows 1 and 2, isolate two to rows 3 and four, etc.) • 8. Incubate the plates at 35° C. for 24 hrs. for Candida sp. and 72 hrs. for Cryptococcus sp. • Similar procedures are followed for Aspergillus sp., Trichophyton sp., and Microsporum sp.
(§7) Stock solutions of water-soluble and water insoluble antifungal agents were prepared according to standard laboratory procedures.
(§8) Antifungal susceptibility testing gives a numerical result expressed in μg/ml indicating an in vitro MIC, or minimum inhibitory concentration, of the drug being investigated. The Clinical and Laboratory Standards Institute (CLSI) has provided guidelines for standardized microdilution broth testing (CLSI M27-A2 for yeasts and CLSI M38-A for filamentous molds), which is followed in the above procedure. The CLSI has also published guidelines for interpretation of MIC results based on clinical correlation studies for yeasts.

[5] = system: Cladosporium sp.; experiment: as above; assay type: cell-based; settings: 35° C.
Procedure: as §1, §2, §3, §5, §6, §7, §8

[6] = system: Penicillium sp.; experiment: as above; assay type: cell-based; settings: 35° C.
Procedure: as §1, §2, §3, §5, §6, §7, §8

[7] = system: Microsporum canis; experiment: as above; assay type: cell-based; settings: 35° C., 80% growth inhibition for dermatophytes
Procedure: as §1, §2, §3, §5, §6, §7, §8

[8] = system: Aspergillus niger; experiment: as above; assay type: cell-based; settings: 35° C.
Procedure: as §1, §2, §3, §5, §6, §7, §8

[9] = system: Trichophyton rubrum; experiment: as above; assay type: cell-based; settings: 35° C., 80% growth inhibition for dermatophytes
Procedure: as §1, §2, §3, §5, §6, §7, §8

[10] = system: C. albicans (fluconazole resistant); experiment: MIC determination, broth microdilution (CLSI M27-A2); assay type: cell-based, Candida albicans; settings: 35° C., 24 hrs, 50% growth inhibition
Procedure: as §1, §2, §3, §4

[11] = system: C. guilliermondii; experiment: Additional MIC experiments (CSA-13 and squalamine); assay type: cell-based, Candida guilliermondii
Procedure: as §2, §3
(§9) Fungal cultures were prepared as follows: • 1. Grow Candida sp. on a potato dextrose agar plate for 24 hrs. at 35° C. Grow Cryptococcus sp. for 48 hrs. • 2. Pick 5 colonies >1 mm in diameter to 5 ml of 0.85% sterile saline in a sterile 15 ml conical tube and vortex. • 3. Count the cells using a hemacytometer • 4. […]

[12] = system: Candida albicans; experiment: MIC determination, broth microdilution (CLSI M27-A2); assay type: cell-based; settings: 35° C., 24 hrs, 50% growth inhibition
Procedure: as §1, §2, §3, §4

[13] = system: C. tropicalis; experiment: Additional MIC experiments (CSA-13 and squalamine); assay type: cell-based, Candida tropicalis
Procedure: as §2, §3, §9

[14] = system: T. tonsurans; experiment: MIC determination, broth microdilution (CLSI M38-A); assay type: cell-based, Trichophyton tonsurans; settings: 35° C., 80% growth inhibition for dermatophytes
Procedure: as §1, §2, §3, §4

[15] = system: C. krusei (fluconazole resistant); experiment: MIC determination, broth microdilution (CLSI M27-A2); assay type: cell-based, Candida krusei; settings: 35° C., 24 hrs, 50% growth inhibition
Procedure: as §1, §2, §3, §4

[16] = system: C. krusei; experiment: as above; assay type: cell-based, Candida krusei; settings: 35° C., 24 hrs, 50% growth inhibition
Procedure: as §1, §2, §3, §4

[17] = system: T. rubrum (terbinafine resistant); experiment: MIC determination, broth microdilution (CLSI M38-A); assay type: cell-based, Trichophyton rubrum; settings: 35° C., 80% growth inhibition for dermatophytes
Procedure: as §1, §2, §3, §4

[18] = system: C. glabrata; experiment: Additional MIC experiments (CSA-13 and squalamine); assay type: cell-based, Candida glabrata
Procedure: as §2, §3, §9

[19] = system: Cryptococcus neofermans; experiment: Additional MIC experiments (CSA-13 and squalamine); assay type: cell-based, Cryptococcus neoformans
Procedure: as §2, §3, §9

[20] = system: C. lusitaniae; experiment: Additional MIC experiments (CSA-13 and squalamine); assay type: cell-based, Candida lusitaniae
Procedure: as §2, §3, §9

[21] = system: 100 Candida auris isolates; experiment: Antifungal effectiveness against Candida auris, MIC by CLSI M27-A3; assay type: cell-based
Procedure: The antifungal effectiveness of CSA-131 was tested against 100 Candida auris isolates. The C. auris isolates were form all over the world and covered know C. auris clades. The selection included isolated known to have elevated MIC values against fluconazole, the echinocandins, and/or amphotericin B.
Testing was performed according to the standards of the Clinical and Laboratory Standards Institute reference methodology M27-A3 (as of 2017). CSA-131 was dissolved in DMSO and diluted as described in M27-A3 to give a final DMSO concentration of <1%. Dilution plates were stored at −70° C. until used and were used within one week of being produced. All results were read visually after 24 hours of incubation at the lowest drug concentration at which there was a 50% decrease in growth by visual inspection. Quality control isolates C. parapsilosis ATCC22019 and C. krusei ATCC6258 were included on each day of testing although there are no standard QC values for these isolates against this compound. The MIC values for ATCC22019 and ATCC6258 remained within a tight range of 1-2 dilutions over the course of the study.

[22] = C. auris isolates with elevated echinocandin MICs, 7 isolates

Structure (SMILES): CCCCCCCCNCCC[C@@H](C)[C@H]1CC[C@H]2[C@@H]3[C@H](OCCCN)C[C@@H]4C[C@H](OCCCN)CC[C@]4(C)[C@H]3C[C@H](OCCCN)[C@]12C [CSA 13]
- MIC [1]: 2 µg/mL
- MIC [2]: 2 µg/mL
- MIC [3]: 2 µg/mL
- MIC [4]: 8 µg/mL
- MIC [5]: 0.5 µg/mL
- MIC [6]: 0.5 µg/mL
- MIC [7]: 2 µg/mL
- MIC [8]: 2 µg/mL
- MIC [9]: 4 µg/mL
- MIC [10]: 2 µg/mL
- MIC ([11]; C. guilliermondii): 0.5 µg/mL
- MIC [12]: 2 µg/mL
- MIC ([13]; C. tropicalis): 0.5 µg/mL
- MIC [14]: 2 µg/mL
- MIC [15]: 1 µg/mL
- MIC [16]: 2 µg/mL
- MIC [17]: 4 µg/mL
- MIC ([18]; C. glabrata): 0.5 µg/mL
- MIC ([19]; Cryptococcus neofermans): 0.5 µg/mL
- MIC ([20]; C. lusitaniae): 0.5 µg/mL

Structure (SMILES): CCCCCCCCCCCCNCCC[C@@H](C)[C@H]1CC[C@H]2[C@@H]3[C@H](OCCCN)C[C@@H]4C[C@H](OCCCN)CC[C@]4(C)[C@H]3C[C@H](OCCCN)[C@]12C [CSA-131]
- MIC Range ([21]; 100 C. auris isolates, 24 hours, 50% decrease in growth): 0.5 to 1 µg/mL
- MIC Range ([21]; C. auris Clade 1, 47 isolates): 0.5 to 1 µg/mL
- MIC90 ([21]; C. auris Clade 2, 11 isolates): 1 µg/mL (≈ 1.36 µM)
- MIC Range ([21]; C. auris Clade 2, 11 isolates): 0.5 to 1 µg/mL
- MIC90 ([21]; C. auris Clade 3, 39 isolates): 1 µg/mL (≈ 1.36 µM)
- MIC Range ([21]; C. auris Clade 3, 39 isolates): 0.5 to 1 µg/mL
- MIC90 ([21]; C. auris Clade 4, 3 isolates): 1 µg/mL (≈ 1.36 µM)
- MIC Range ([21]; C. auris Clade 4, 3 isolates): 0.5 to 1 µg/mL
- MIC90 [21, 22]: 1 µg/mL (≈ 1.36 µM)
- MIC Range [21, 22]: 0.5 to 1 µg/mL
- MIC50 ([21]; Candidozyma auris, 24 h, 100 C. auris isolates, 24 hours, 50% decrease in growth, read-out: MIC50): 1 µg/mL (≈ 1.36 µM)
- MIC ([21]; Candidozyma auris, 24 h, 100 C. auris isolates, 24 hours, 50% decrease in growth, read-out: MIC Mode): 1 µg/mL (≈ 1.36 µM)
- MIC50 ([21]; Candidozyma auris, C. auris Clade 1, 47 isolates, read-out: MIC50): 1 µg/mL (≈ 1.36 µM)
- MIC90 ([21]; Candidozyma auris, C. auris Clade 1, 47 isolates, read-out: MIC90): 1 µg/mL (≈ 1.36 µM)
- MIC ([21]; Candidozyma auris, C. auris Clade 1, 47 isolates, read-out: MIC Mode): 1 µg/mL (≈ 1.36 µM)
- MIC50 ([21]; Candidozyma auris, C. auris Clade 2, 11 isolates, read-out: MIC50): 1 µg/mL (≈ 1.36 µM)
- MIC ([21]; Candidozyma auris, C. auris Clade 2, 11 isolates, read-out: MIC Mode): 1 µg/mL (≈ 1.36 µM)
- MIC50 ([21]; Candidozyma auris, C. auris Clade 3, 39 isolates, read-out: MIC50): 1 µg/mL (≈ 1.36 µM)
- MIC ([21]; Candidozyma auris, C. auris Clade 3, 39 isolates, read-out: MIC Mode): 1 µg/mL (≈ 1.36 µM)
- MIC50 ([21]; Candidozyma auris, C. auris Clade 4, 3 isolates, read-out: MIC50): 0.5 µg/mL (≈ 0.682 µM)
- MIC ([21]; Candidozyma auris, C. auris Clade 4, 3 isolates, read-out: MIC Mode): 0.5 µg/mL (≈ 0.682 µM)
- MIC50 ([21]; Candidozyma auris, C. auris isolates with elevated echinocandin MICs, 7 isolates, read-out: MIC50): 1 µg/mL (≈ 1.36 µM)
- MIC ([21]; Candidozyma auris, C. auris isolates with elevated echinocandin MICs, 7 isolates, read-out: MIC Mode): 1 µg/mL (≈ 1.36 µM)
- MIC50 ([21]; Candidozyma auris, fluconazole Resistant C. auris isolates, 69 isolates): 1 µg/mL (≈ 1.36 µM)
- MIC50 ([21]; Candidozyma auris, fluconazole Susceptible C. auris isolates, 30 isolates): 0.5 µg/mL (≈ 0.682 µM)
- MIC ([21]; Candidozyma auris, read-out: MIC Mode, fluconazole Resistant C. auris isolates, 69 isolates): 1 µg/mL (≈ 1.36 µM)
- MIC90 ([21]; Candidozyma auris, 100 C. auris isolates, 24 hours, 50% decrease in growth, read-out: MIC90): 1 µg/mL (≈ 1.36 µM)
- activity against C. auris (in words) ([21]; collection of 100 C. auris isolates, 4 clades): showed activity against all C. auris among this collection
- MIC90 ([21]; {}): 1 µg/mL (≈ 1.36 µM)
- MIC Range ([21]; {}): 0.5 to 1 µg/mL

Structure (SMILES): CC(C)[C@@H](CC[C@@H](C)[C@H]1CC[C@H]2[C@@H]3[C@H](O)C[C@H]4C[C@@H](NCCCNCCCCN)CC[C@]4(C)[C@H]3CC[C@]12C)OS(=O)(=O)O [Squalamine, squalamine, reference compound]
- MIC ([11]; Meyerozyma guilliermondii): 4 µg/mL
- MIC ([13]; Candida tropicalis): 4 µg/mL
- MIC ([18]; Nakaseomyces glabratus): 2 µg/mL
- MIC ([19]; Cryptococcus): 4 µg/mL
- MIC ([20]; Clavispora lusitaniae): 4 µg/mL
